In general, IC50 refers to the concentration at which inhibition is half-maximal. Higher therefore signals a need for much substance.

What all share (assay type): biochemical
For assay [1], the target named is T1, H. pylori shikimate kinase (HpSK) (Helicobacter pylori, UniProt P56073).
T1 construct: made in house; host or cells: Escherichia coli (stated for the mutants, which followed the wild-type procedure)
The experiment in a line: Shikimate kinase coupled enzyme inhibition assay (HpSK). The conditions noted are these: for Inhibitory effect against shikimate kinase (in words): HpSK; for IC50: 1.6 mM shikimic acid, 2.5 mM ATP, 25°C, pH 7.5.

The target in assay [2] is T2, M. tuberculosis shikimate kinase (MtSK) (Mycobacterium tuberculosis, UniProt P9WPY3).
T2 construct: His6 (N); made in house; host or cells: E. coli BL-21 (DE3)
T2 sequence (P9WPY3 whole entry): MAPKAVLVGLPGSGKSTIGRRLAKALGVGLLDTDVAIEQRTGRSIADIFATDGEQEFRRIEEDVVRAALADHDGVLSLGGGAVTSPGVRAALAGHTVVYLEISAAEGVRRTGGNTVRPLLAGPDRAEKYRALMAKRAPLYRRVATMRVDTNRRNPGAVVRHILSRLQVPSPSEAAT
The experiment in a line: Shikimate kinase coupled enzyme inhibition assay (MtSK). The conditions noted are these: for Inhibitory effect against shikimate kinase (in words): MtSK; for IC50: SK species: Mt, 1.6 mM shikimic acid, 2.5 mM ATP, 25°C, pH 7.5.

In assay [3] the target is T1, H. pylori shikimate kinase (HpSK). The experiment in a line: Analysis of inhibitor kinetics / inhibitor modality (HpSK). The conditions noted are these: for Inhibitor modality with respect to ATP / Inhibitor modality with respect to shikimate: HpSK; for Ki: SK species: Hp. On the procedure:
(§1) Shikimate kinase activity was determined by coupling the release of ADP from the SK-catalyzed reaction to the oxidation of NADH using pyruvate kinase (EC 2.7.1.40) and lactate dehydrogenase (EC 1.1.1.27) as coupling enzymes. Shikimate-dependent oxidation of NADH was measured by monitoring the decrease in A340 (ε = 6,200 M^−1 cm^−1). The assay was carried out at 25°C in a mixture of 100 mM Tris-HCl buffer, pH 7.5, 50 mM KCl, 5 mM MgCl2, 1.6 mM shikimic acid, 2.5 mM ATP, 1 mM phosphoenolpyruvate (PEP), 0.1 mM NADH, 2.5 units of pyruvate kinase per ml, and 2.7 units of lactate dehydrogenase per ml. All assays were conducted in a 96-well microplate and analyzed with a spectrophotometer (FLUOstar OPTIMA, BMG LABTECH).
(§2) After the preliminary screening, the inhibitor modality was determined by measuring the effects of inhibitor concentrations on the enzymatic activity as a function of substrate concentration. In the inhibition experiment in which the ATP concentration was fixed at 2.5 mM, shikimate was a varied substrate (0.06, 0.12, 0.24, 0.48, and 0.96 mM) when the concentration of inhibitor was varied from 0 to 50 µM. In parallel, in the inhibition experiment in which the shikimate concentration was fixed at 1.6 mM, ATP was a varied substrate (0.06, 0.12, 0.24, 0.48, and 0.96 mM) when the concentration of inhibitor was varied from 0 to 50 µM. A nonlinear least square-fitting algorithm was applied to the absorbance data to determine the kinetic mechanism data.

The target in assay [4] is T2, M. tuberculosis shikimate kinase (MtSK). Briefly: Analysis of inhibitor kinetics / inhibitor modality (MtSK). The note with it: for Inhibitor modality with respect to ATP / Inhibitor modality with respect to shikimate: MtSK; for Ki: SK species: Mt. How it is done: as §1, §2
[5] abbreviates: ATP varied, shikimate fixed at 1.6 mM, read-out: αKi, ATP.
Where [6] appears, read: shikimate varied, ATP fixed at 2.5 mM, read-out: αKi, SKM.

“And” between values parts separate entries of the source, which are not always exact repeats. Equal values may be shown once. Read-outs that look alike come from different tables or passages of the source. Bounds are passed on as bounds.

T1 sequence (P56073 whole entry): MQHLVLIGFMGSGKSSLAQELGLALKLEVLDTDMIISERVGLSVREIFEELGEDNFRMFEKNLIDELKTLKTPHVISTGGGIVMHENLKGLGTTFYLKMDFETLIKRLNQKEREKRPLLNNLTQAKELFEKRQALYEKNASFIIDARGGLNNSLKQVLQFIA

As to `O=C1Nc2ccc(I)cc2/C1=C/c1cc(Br)c(O)c(Br)c1` [GW5074, reference compound], the “Inhibitory effect against shikimate kinase (in words)” value (“Inhibitory effect” for short) in assay [1] and in assay [2] was “showed inhibitory effects” each time. Moreover, the IC50 in assay [1] (IC50, SK species: Hp) is 31.4 µM; in assay [2] it was 29.6 µM.
In the case of `O=C(Nc1ccc(C(=O)Nc2ccc3c(O)cc(S(=O)(=O)O)cc3c2)cc1)c1ccccc1` [NSC37215], the “Inhibitory effect” value in assay [1] and in assay [2] was “lost the inhibitory” in each case. The IC50 was more than 100 µM in assay [1] (IC50, SK species: Hp) and more than 100 µM in assay [2].
`O=C(Nc1ccc2c(O)cc(S(=O)(=O)O)cc2c1)Nc1ccc2c(O)cc(S(=O)(=O)O)cc2c1` [NSC45174]: the concentration for half-maximal inhibition (IC50) in assay [1] (IC50, SK species: Hp) is ≤ 10 µM and 7.8 µM; in assay [2] it was ≤ 10 µM and 2.8 µM.
Turning to `O=S(=O)(O)c1cc(O)c2c(O)c(N=Nc3cccc4ccccc34)c(S(=O)(=O)O)cc2c1` [NSC45208], the “Inhibitory effect” value in assay [1] and in assay [2] was “lost the inhibitory” each time. In addition, the IC50 was more than 100 µM in assay [1] (IC50, SK species: Hp) and more than 100 µM in assay [2].
In the case of `Nc1ccc2c(O)c(/N=N/c3ccc([N+](=O)[O-])cc3)c(S(=O)(=O)O)cc2c1` [NSC45547], the concentration for half-maximal inhibition (IC50) in assay [1] (SK species: Hp) was ≤ 10 µM and 7.8 µM.
The same measure, in the same setting: for `O=C(Nc1ccc2c(O)c(/N=N/c3ccc4c(O)cc(S(=O)(=O)O)cc4c3)c(S(=O)(=O)O)cc2c1)c1ccccc1` [NSC45609] the value was ≤ 10 µM and 7 µM.
As to `Cc1cc(N=Nc2ccc(N=Nc3ccc(N=Nc4ccc(O)c(C(=O)O)c4)cc3)c(S(=O)(=O)O)c2C)c(N)cc1N` [NSC45611], the IC50 in assay [1] (IC50, SK species: Hp) is ≤ 10 µM and 4.8 µM; in assay [2], ≤ 10 µM and 1.5 µM. The “Inhibitor modality with respect to ATP” value in assay [3] and in assay [4] was “competitive inhibitors of ATP” throughout. Also, the “Inhibitor modality with respect to shikimate” value in assay [3] and in assay [4] was “competed with shikimate” throughout. The Ki in assay [3] (αKi, ATP, ATP varied, shikimate fixed at 1.6 mM) came out at 1.1 µM; in assay [3] (αKi, SKM, shikimate varied, ATP fixed at 2.5 mM), 1.7 µM; in assay [4] (setting [5]), 0.3 µM; in assay [4] (setting [6]) it was 0.7 µM.
Regarding `Nc1ccc2c(O)c(N=Nc3ccc4c(O)cc(S(=O)(=O)O)cc4c3)c(S(=O)(=O)O)cc2c1` [NSC162535], the “Inhibitor modality with respect to ATP” value in assay [3] and in assay [4] was “competitive inhibitors of ATP” each time. In addition, the “Inhibitor modality with respect to shikimate” value in assay [3] and in assay [4] was “competed with shikimate” each time. Further, the Ki in assay [3] (read-out: αKi, ATP, ATP varied, shikimate fixed at 1.6 mM) stood at 1.9 µM; in assay [3] (read-out: αKi, SKM, shikimate varied, ATP fixed at 2.5 mM), 1.8 µM; in assay [4] (setting [5]), 0.2 µM; in assay [4] (setting [6]), 0.6 µM.
Consider `O=C(NNC(=O)C1c2ccccc2Oc2ccccc21)c1cccc(F)c1` [RH00016], for which the half-maximal inhibitory concentration (IC50) in assay [1] (IC50, SK species: Hp) is 40.2 µM; in assay [2] it was less than 100 µM.
Turning to `O=C(NNC(=O)C1c2ccccc2Oc2ccccc21)c1cccc([N+](=O)[O-])c1` [RH00037], the half-inhibitory concentration (IC50) in assay [1] (IC50, SK species: Hp) was 23.8 µM; in assay [2], less than 100 µM.
`N=C(NO)c1ccc(Oc2cc(Cl)cc(Cl)c2)c([N+](=O)[O-])c1` [SPB01099]: the IC50 in assay [1] (SK species: Hp) and in assay [2] was less than 100 µM throughout.

Source of the values: article PMC3290551, “Core Site-Moiety Maps Reveal Inhibitors and Binding Mechanisms of Orthologous Proteins by Screening Compound Libraries” (PLoS ONE, 2012).
